From patent US11801228B2, “Modified guanidine-containing polymers for biologic delivery” (THE FLORIDA INTERNATIONAL UNIVERSITY BOARD OF TRUSTEES, priority 2022, dated 2023)

B1: RNase A: 13.7 kDa enzyme capable of degrading RNA chains (protein, UniProt P61823 27-150, looked up)
Ribonuclease pancreatic: KETAAAKFERQHMDSSTSAASSSNYCNQMMKSRNLTKDRCKPVNTFVHESLADVQAVCSQKNVACKNGQTNCYQSYSTMSITDCRETGSSKYPNCAYKTTQANKHIIVACEGNPYVPVHFDASV

Tested on: HeLa cells
Assay: Functional protein delivery (MTT with PN/enzyme complexes)
Assay type: cell-based
Conditions: no carrier
Method: Final concentrations of 40, 20, 10, and 5 μM were added into the complete media by dilution of the polymer stock solutions. After addition of the samples, cells were incubated for 18 h prior to treatment with 10 μL of methylthiazole tetrazolium (MTT) (5 mg/mL in PBS) and incubated for 4 h at 37° C. After incubation, 200 μL of medium was gently removed and 100 μL of biological grade DMSO was added to solubilize the purple formazan crystals. Absorbance was measured by microwell plate reader. Cell viability was determined as a function of absorbance of each sample relative to control wells. All measurements represent the average of three independent measurements+/−standard deviation.
MTT assay was performed with PN/enzyme complexes are described previously. In short, serial dilutions of saporin or RNase were prepared and complexes with various PNs. For serum-containing media, complexes were added to HeLa cells and incubated overnight prior to MTT treatment. For serum-free experiments, complexes were added in DMEM for 4 h and the media was replaced with complete media overnight prior to MTT treatment.

Row | Molecule | toxicity of free enzyme on HeLa cells
1 | Saporin | no toxicity
2 | B1 | no toxicity
